For one assay, the system named is proteinase K. The assay is classed as biochemical.
For another assay, the system named is [^35 S-]PrP^C. The assay is classed as biochemical, Syrian hamster.
The target in another assay is [^35 S-]SHaPrP^C (Mesocricetus auratus, UniProt P04273). The assay is classed as biochemical.

Structures are written as SMILES. Entries after “also recorded” stand apart in the source; their conditions may differ. Counter-ions that a name gives are not always drawn.

Chain of [^35 S-]SHaPrP^C (P04273 23-254 limits assumed): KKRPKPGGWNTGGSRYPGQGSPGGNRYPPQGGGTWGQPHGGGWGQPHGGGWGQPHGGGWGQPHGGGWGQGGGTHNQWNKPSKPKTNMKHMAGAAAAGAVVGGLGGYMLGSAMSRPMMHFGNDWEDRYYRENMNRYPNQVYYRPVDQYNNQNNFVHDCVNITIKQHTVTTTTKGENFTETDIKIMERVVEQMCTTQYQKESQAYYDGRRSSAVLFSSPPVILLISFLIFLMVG

For the compound `N=C(N)N` [Gdn-HCl, guanidine hydrochloride], the “Reduction of proteinase K activity” value in the assay with proteinase K was ~ 90%. In addition, in assay [^35 S-]PrP^C, the “Requirement of Gdn-HCl for complex formation” value is “seemed to be essential”.
On to `CCCCCCCCCCCC(=O)N(C)CC(=O)O` [Sarkosyl], for which the “Effect of Sarkosyl on PrP^C /PrP peptide complexes” value in assay [^35 S-]SHaPrP^C was “disrupted the prion protein complexes and rendered the PrP^C sensitive to protease activity; also recorded: disrupted the PrP^C /PrP peptide complexes and rendered the PrP^C sensitive to protease activity”.
